# Assay results from patent US5834453A, “Methods for the manufacture and use of antimicrobial sterol conjugates” (Lehigh University, priority 1997, dated 1998).
# “Also recorded” adds a separate entry of the source. Read-outs that look alike come from different tables or passages of the source.
# How the values were obtained:
# A. fumigatus (H1120) = assay: MIC, micro-broth dilution; assay type: cell-based; conditions: Aspergillus fumigatus, 35° C., 24 hours, read-out: ANTIMICROBIAL ACTIVITY (MIC)
# Experimental: (§1) The antimicrobial activity of the compounds according to the present invention were compared with the results obtained for squalamine as reported in Proc. Nat. Acad. Sci. USA 90:1354 (1993), supra, the disclosure of which is incorporated in toto herein. The data reported in the following table is the minimum inhibitory concentration (MIC) required for complete inhibition of microbial growth. The MIC was determined utilizing known micro-broth dilution methods in which inocula of 10^6 /ml of the test organism were incubated in 0.5× trypticase soy broth at 35° C. for 24 hours. MIC's were also tested under various pH conditions, with calcium chloride or magnesium chloride, or with immobilized horse serum.
# (§2) The numbers in parentheses contained in the table correspond to accession numbers with the American Type Culture Collection (reference strains were either obtained from the American Type Culture Collection or from the Microbiology Laboratory at Memorial Sloan-Kettering Cancer Center; Bacterial strains were maintained on Columbia 5% sheep blood agar plates, and fungi were maintained on Sabouraud Dextrose agar plates).
# A. fumigatus (H29709) = assay: MIC, micro-broth dilution; assay type: cell-based; conditions: Aspergillus fumigatus, 35° C., 24 hours, read-out: ANTIMICROBIAL ACTIVITY (MIC)
# Experimental: as §1, §2
# C. albicans (90028) = assay: MIC, micro-broth dilution; assay type: cell-based; conditions: Candida albicans, 35° C., 24 hours, read-out: ANTIMICROBIAL ACTIVITY (MIC)
# Experimental: as §1, §2
# C. neoformans (90012) = assay: MIC, micro-broth dilution; assay type: cell-based; conditions: Cryptococcus neoformans, 24 h, read-out: ANTIMICROBIAL ACTIVITY (MIC)
# Experimental: as §1, §2
# C. neoformans (M68979) = assay: MIC, micro-broth dilution; assay type: cell-based; conditions: Cryptococcus neoformans, 24 h, read-out: ANTIMICROBIAL ACTIVITY (MIC)
# Experimental: as §1, §2
# E. cloacae (13047) = assay: MIC, micro-broth dilution; assay type: cell-based; conditions: Enterobacter cloacae, 35° C., 24 hours, read-out: ANTIMICROBIAL ACTIVITY (MIC)
# Experimental: as §1, §2
# E. coli (25922) = assay: MIC, micro-broth dilution; assay type: cell-based; conditions: Escherichia coli, 35° C., 24 hours, read-out: ANTIMICROBIAL ACTIVITY (MIC)
# Experimental: as §1, §2
# E. faecalis (29212) = assay: MIC, micro-broth dilution; assay type: cell-based; conditions: Enterococcus faecalis, 35° C., 24 hours, read-out: ANTIMICROBIAL ACTIVITY (MIC)
# Experimental: as §1, §2
# E. faecium (T6480-9) = assay: MIC, micro-broth dilution; assay type: cell-based; conditions: Enterococcus faecium, 35° C., 24 hours, read-out: ANTIMICROBIAL ACTIVITY (MIC)
# Experimental: as §1, §2
# K. pneumoniae (13883) = assay: MIC, micro-broth dilution; assay type: cell-based; conditions: Klebsiella pneumoniae, read-out: ANTIMICROBIAL ACTIVITY (MIC)
# Experimental: as §1, §2
# P. aeruginosa (10145) = assay: MIC, micro-broth dilution; assay type: cell-based; conditions: Pseudomonas aeruginosa, 35° C., 24 hours, read-out: ANTIMICROBIAL ACTIVITY (MIC)
# Experimental: as §1, §2
# P. aeruginosa (2853) = assay: MIC, micro-broth dilution; assay type: cell-based; conditions: Pseudomonas aeruginosa, 24 h, read-out: ANTIMICROBIAL ACTIVITY (MIC)
# Experimental: as §1, §2
# P. vulgaris (13315) = assay: MIC, micro-broth dilution; assay type: cell-based; conditions: Proteus vulgaris, 35° C., 24 hours, read-out: ANTIMICROBIAL ACTIVITY (MIC)
# Experimental: as §1, §2
# S. agalactiae (13813) = assay: MIC, micro-broth dilution; assay type: cell-based; conditions: Streptococcus agalactiae, 35° C., 24 hours, read-out: ANTIMICROBIAL ACTIVITY (MIC)
# Experimental: as §1, §2
# S. aureus (25923) = assay: MIC, micro-broth dilution; assay type: cell-based; conditions: Staphylococcus aureus, 35° C., 24 hours, read-out: ANTIMICROBIAL ACTIVITY (MIC)
# Experimental: as §1, §2
# S. aureus (29213) = assay: MIC, micro-broth dilution; assay type: cell-based; conditions: Staphylococcus aureus, 24 h, read-out: ANTIMICROBIAL ACTIVITY (MIC)
# Experimental: as §1, §2
# S. aureus (H20809) = assay: MIC, micro-broth dilution; assay type: cell-based; conditions: Staphylococcus aureus, 24 h, read-out: ANTIMICROBIAL ACTIVITY (MIC)
# Experimental: as §1, §2
# S. epidermidis (12228) = assay: MIC, micro-broth dilution; assay type: cell-based; conditions: Staphylococcus epidermidis, 35° C., 24 hours, read-out: ANTIMICROBIAL ACTIVITY (MIC)
# Experimental: as §1, §2
# S. marcescens (13880) = assay: MIC, micro-broth dilution; assay type: cell-based; conditions: for MIC: Serratia marcescens, 24 h, read-out: ANTIMICROBIAL ACTIVITY (MIC)
# Experimental: as §1, §2
# S. pneumoniae (6305) = assay: MIC, micro-broth dilution; assay type: cell-based; conditions: Streptococcus pneumoniae, 35° C., 24 hours, read-out: ANTIMICROBIAL ACTIVITY (MIC)
# Experimental: as §1, §2
# S. pyrogenes (19615) = assay: MIC, micro-broth dilution; assay type: cell-based; conditions: 24 h, read-out: ANTIMICROBIAL ACTIVITY (MIC)
# Experimental: as §1, §2
# [1] = Hemolytic activity, minimal hemolytic concentration (MHC);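 on MCC: MCC here is the minimal hemolytic concentration (MHC)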; assay type: cell-based, sheep; conditions: for minimal hemolytic concentration (MHC) at 24 h: sheep red blood cells, 24 hours at 37° C. in saline
# Experimental: (§3) Hemolytic activity of the squalamine mimics according to the present invention were also studied by incubating sheep red blood cells for 24 hours at 37° C. in saline (final concentration of 0.5%) with or without respective concentrations of the squalamine mimics. The minimal hemolytic concentration (MHC) was determined as the lowest concentration of a mimic that raised visible hemolysis.
# sheep red blood cells = assay: as above; assay type: cell-based
# Experimental: as §3
# [2] = test system: various groups of microorganisms; assay: Antimicrobial activity (MIC), all microorganisms tested; assay type: cell-based
# Experimental: as §1, §2
# gram positive cocci = assay: Antimicrobial activity (MIC), gram positive cocci; assay type: cell-based; conditions: of all the mimics tested
# Experimental: as §1
# fungi = assay: Antimicrobial activity (MIC), fungi; assay type: cell-based; conditions: of all the mimics tested
# Experimental: as §1
# Aspergillus fumigatus = assay: MIC against clinical isolates; assay type: cell-based; conditions: 24 h; clinical isolates of Aspergillus fumigatus
# Experimental: as §1, §2
# Cryptococcus neoformans = assay: MIC against clinical isolates; assay type: cell-based; conditions: 24 h; clinical isolates of Cryptococcus neoformans
# Experimental: as §1, §2
SMILES,MIC (A. fumigatus (H1120)) [µg/mL],MIC (A. fumigatus (H29709)) [µg/mL],MIC (C. albicans (90028)) [µg/mL],MIC (C. neoformans (90012)) [µg/mL],MIC (C. neoformans (M68979)) [µg/mL],MIC (E. cloacae (13047)) [µg/mL],MIC (E. coli (25922)) [µg/mL],MIC (E. faecalis (29212)) [µg/mL],MIC (E. faecium (T6480-9)) [µg/mL],MIC (K. pneumoniae (13883); 24 h) [µg/mL],MIC (P. aeruginosa (10145)) [µg/mL],MIC (P. aeruginosa (2853)) [µg/mL],MIC (P. vulgaris (13315)) [µg/mL],MIC (S. agalactiae (13813)) [µg/mL],MIC (S. aureus (25923)) [µg/mL],MIC (S. aureus (29213)) [µg/mL],MIC (S. epidermidis (12228)) [µg/mL],MIC (S. marcescens (13880)) [µg/mL],MIC (S. pneumoniae (6305)) [µg/mL],MIC (S. pyrogenes (19615)) [µg/mL],also measured
C[C@H](CCC(=O)NCCCNCCCCNCCCN)[C@H]1CC[C@H]2[C@@H]3CC[C@@H]4C[C@H](O)CC[C@]4(C)[C@H]3CC[C@]12C [SM-25],12.5,12.5,3.13,0.39,0.39,> 100,1.56,3.13,3.13,> 100,3.13,0.78,12.5,0.78,0.78,0.78,0.39,> 100,3.13,0.78,"MIC (S. aureus (H20809)): 0.39 µg/mL; minimal hemolytic concentration (MHC) at 24 h [1]: 50 µg/mL; hemolytic activity (in words) (sheep red blood cells): unwanted hemolytic activity; antimicrobial activity (in words) [2]: highly active; also recorded: more activity than SM-8, SM-14, and SM-22; potency ranking against gram positive cocci (gram positive cocci): most potent activity against gram positive cocci and fungi of all the mimics tested; potency ranking against fungi (fungi): most potent activity against gram positive cocci and fungi of all the mimics tested"
"C[C@H](C(=O)NCCCNCCCCNCCCN)[C@H]1CC[C@H]2[C@@H]3CC=C4C[C@@H](OS(=O)(=O)O)CC[C@]4(C)[C@H]3CC[C@]12C [SM-2, 23,24-bisnor-3β-ol-5-cholenic acid 3-sulfate spermine conjugate]",12.5,–,12.5,–,3.13,> 100,6.25,> 100,> 100,12.5,12.5,3.13,> 100,> 100,12.5,> 100,3.13,> 100,> 100,6.25,minimal hemolytic concentration (MHC) at 24 h [1]: > 100 µg/mL; MIC (Aspergillus fumigatus): 12.5 µg/mL; MIC (Cryptococcus neoformans): 3.13 µg/mL
C[C@H](CCC(=O)NCCCNCCCCNCCCN)[C@H]1CC[C@H]2[C@@H]3[C@H](O)C[C@@H]4C[C@H](O)CC[C@]4(C)[C@H]3CC[C@]12C [SM-34],12.5,12.5,3.13,0.78,3.13,12.5,3.13,3.13,6.25,–,25,12.5,12.5,1.56,0.78,1.56,0.78,12.5,3.13,0.78,"MIC (K. pneumoniae (13883); K. pneumoniae (13883), 35° C., 24 hours): 8.25 µg/mL; MIC (S. aureus (H20809)): 1.56 µg/mL; activity against S. marcescens (S. marcescens (13880); in words): found even against S. marcescens; also recorded: effective against S. marcescens; MCC at 24 h ([1]; sheep, red blood cells): 25 µg/mL; hemolytic activity (in words) (sheep red blood cells): unwanted hemolytic activity; antimicrobial activity (in words) [2]: highly active"
